Results from a flash point compilation (Sun et al. 2020).

Which flash point does the source give for `CN(C)[Si](C)(C)C` [(N,N-Dimethylamino)trimethylsilane] here?
The flash point was -18.6 °C.

For `CC[Si](Cl)(Cl)Cl` [Ethyltrichlorosilane], which flash point is on record?
Its flash point is -10.00 °C.

remark: another data set of the same source

For `C=C[CH2][Ge]([CH3])([CH3])[CH3]` [ALLYLTRIMETHYLGERMANE], which flash point is on record?
Its flash point is 1.00 °C.

With `c1cc[c]([GeH2][c]2ccccc2)cc1` [DIPHENYLGERMANE] as the compound, how does the flash point read?
Its flash point is 104.00 °C.

For `C[CH2][Ge]([CH2]C)([CH2]C)[CH2]C` [TETRAETHYLGERMANE], which flash point is on record?
Its flash point is 42.00 °C.

With `[CH3][Ge]([CH3])([CH2]Cl)[CH2]Cl` [BIS(CHLOROMETHYL)DIMETHYLGERMANE] as the compound, how does the flash point read?
The flash point was 51.00 °C.

For `C[N](C)[Ge]([N](C)C)([N](C)C)[N](C)C` [TETRAKIS(DIMETHYLAMINO)GERMANE], which flash point is on record?
Its flash point is 34.00 °C.

Which flash point does the source give for `CCCC[O][Ge]([O]CCCC)([O]CCCC)[O]CCCC` [TETRA-n-BUTOXYGERMANE] here?
Its flash point is 112.00 °C.

For `C[C](C)(C)[Ge]([CH3])([CH3])[Cl]` [t-BUTYLDIMETHYLCHLOROGERMANE], which flash point is on record?
Its flash point is 34.00 °C.

For `C=C(C)C(=O)O[CH2][Ge]([CH3])([CH3])[CH3]` [METHACRYLOXYMETHYLTRIMETHYLGERMANE], which flash point is on record?
The flash point was 63.00 °C.

With `[CH3][Ge]([Cl])([Cl])[Cl]` [METHYLTRICHLOROGERMANE] as the compound, how does the flash point read?
The flash point was 10.00 °C.

For `C[CH2][Ge]([Cl])([Cl])[Cl]` [ETHYLTRICHLOROGERMANE], which flash point is on record?
Its flash point is 51.00 °C.

For `C[O][Ge]([O]C)([O]C)[O]C` [TETRAMETHOXYGERMANE], which flash point is on record?
The flash point was 34.00 °C.

Which flash point does the source give for `[CH3][Ge]([CH3])([CH3])[Br]` [TRIMETHYLBROMOGERMANE] here?
Its flash point is 37.00 °C.

Which flash point does the source give for `[CH3][Ge]([CH3])([CH3])[Ge]([CH3])([CH3])[CH3]` [HEXAMETHYLDIGERMANE] here?
The flash point was 14.00 °C.

Which flash point does the source give for `CCC[CH2][Ge]([Cl])([Cl])[CH2]CCC` [DI-n-BUTYLDICHLOROGERMANE] here?
Its flash point is 107.00 °C.

For `[Cl][Ge]([Cl])([c]1ccccc1)[c]1ccccc1` [DIPHENYLDICHLOROGERMANE], which flash point is on record?
The flash point was 160.00 °C.

With `C=[CH][Ge]([CH2]C)([CH2]C)[CH2]C` [VINYLTRIETHYLGERMANE] as the compound, how does the flash point read?
Its flash point is 32.00 °C.

remark: another data set of the same source

Which flash point does the source give for `[CH3][Sn]([CH3])([CH3])[CH2]Cl` [CHLOROMETHYLTRIMETHYLTIN] here?
The flash point was 39.00 °C.

With `[Cl][Sn]([c]1ccccc1)([c]1ccccc1)[c]1ccccc1` [TRIPHENYLCHLOROTIN] as the compound, how does the flash point read?
Its flash point is 70.00 °C.

With `CCC[CH2][Sn]([C]#Cc1ccccc1)([CH2]CCC)[CH2]CCC` [PHENYLETHYNYLTRI-n-BUTYLTIN] as the compound, how does the flash point read?
Its flash point is 113.00 °C.

With `CCC[CH2][Sn]([Cl])([Cl])[CH2]CCC` [DI-n-BUTYLDICHLOROTIN] as the compound, how does the flash point read?
The flash point was 168.00 °C.

Which flash point does the source give for `CCC[CH2][Sn]([CH2]CCC)([CH2]CCC)[N](C)C` [DIMETHYLAMINOTRI-n-BUTYLTIN] here?
The flash point was 115.00 °C.

For `CC[N](CC)[Sn]([N](CC)CC)([N](CC)CC)[N](CC)CC` [TETRAKIS(DIETHYLAMINO)TIN], which flash point is on record?
The flash point was 39.00 °C.

With `C=[C](OCC)[Sn]([CH2]CCC)([CH2]CCC)[CH2]CCC` [1-ETHOXYVINYLTRI-n-BUTYLTIN] as the compound, how does the flash point read?
The flash point was 113.00 °C.

Which flash point does the source give for `C=C[CH2][Sn]([CH2]C=C)([CH2]C=C)[CH2]C=C` [TETRAALLYLTIN] here?
The flash point was 75.00 °C.

For `CCC[CH2][Sn]([CH2]CCC)([CH2]CCC)[O]C` [TRI-n-BUTYLMETHOXYTIN], which flash point is on record?
The flash point was 98.00 °C.

For `CCC[CH2][Sn]([CH2]CCC)([CH2]CCC)[S]c1ccccc1` [PHENYLTHIOTRI-n-BUTYLTIN], which flash point is on record?
The flash point was 104.00 °C.

For `CCCCCCC[CH2][Sn]([Cl])([Cl])[CH2]CCCCCCC` [DIOCTYLDICHLOROTIN], which flash point is on record?
The flash point was 204.00 °C.

For `C[CH2][Sn]([CH2]C)([CH2]C)[CH2]C` [TETRAETHYLTIN], which flash point is on record?
The flash point was 53.00 °C.

For `C=[CH][Sn]([Cl])([Cl])[CH]=C` [DIVINYLDICHLOROTIN], which flash point is on record?
Its flash point is 204.00 °C.

For `CCC[CH2][Sn]([CH2]CCC)([CH2]CCC)[c]1cccs1` [2-THIENYLTRI-n-BUTYLTIN], which flash point is on record?
Its flash point is 106.00 °C.

With `C=[CH][Sn]([CH]=C)([CH]=C)[CH]=C` [TETRAVINYLTIN] as the compound, how does the flash point read?
The flash point was 40.00 °C.

For `C[Si](C)(C)[N]([Sn][N]([Si](C)(C)C)[Si](C)(C)C)[Si](C)(C)C` [BIS[BIS(TRIMETHYLSILYL)AMINO]TIN(II)], which flash point is on record?
Its flash point is 56.00 °C.

With `C=C[CH2][Sn]([CH2]CCC)([CH2]CCC)[CH2]CCC` [ALLYLTRI-n-BUTYLTIN] as the compound, how does the flash point read?
Its flash point is 103.00 °C.

remark: another data set of the same source

Which flash point does the source give for `Cl[SiH](Cl)c1ccccc1` [Phenyldichlorosilane] here?
Its flash point is 60 °C.

Which flash point does the source give for `C[SiH](C)c1ccccc1` [Phenyldimethylsilane] here?
The flash point was 38 °C.

For `CN(C)[Si](C)(C)C` [(N,N-Dimethylamino)trimethylsilane], which flash point is on record?
The flash point was -19 °C.

For `CC[Si](Cl)(Cl)Cl` [Ethyltrichlorosilane], which flash point is on record?
Its flash point is 22 °C.

For `C=C[Si]1(C)[Si](C)(C=C)[Si](C)(C=C)[Si]1(C)C=C` (configuration not stated) [Tetramethyltetravinylcyclotetrasilane], which flash point is on record?
The flash point was 112 °C.

Which flash point does the source give for `C[SiH](Cl)Cl` [Methyldichlorosilane] here?
Its flash point is -32 °C.

With `C[Si](Cl)(Cl)CCCCl` [3-Chloropropylmethyldichlorosilane] as the compound, how does the flash point read?
The flash point was 86 °C.
